How the values were obtained:
[1] = target: T1, K9K peptide ([…], SARS-CoV-2 spike protein position 1245 to 1255) (Severe acute respiratory syndrome coronavirus 2, UniProt P0DTC2); format: binding
T1 construct: purchased Innovagen AB

[2] = system: tetracysteine-containing peptide; conditions: peptide-bound versus free FlAsH-EDT2; cited from earlier work

SMILES: O=C(O)c1ccccc1-c1c2ccc(=O)c([As]3SCCS3)c-2oc2c([As]3SCCS3)c(O)ccc12 [FlAsH, 2-(4,5-di(1,3,2-dithiarsolan-2-yl)-6-hydroxy-3-oxo-3H-xanthen-9-yl)benzoic acid]
- change of fluorescence after heating the mixture [1]: more than doubled
- effect of a reducing agent on emitted fluorescence [1]: can be enhanced
- emission of K9K-FlAsH versus FlAsH Control [1]: meaningfully greater
- emitted fluorescence versus Control at K9K dilutions [1]: meaningful increases over the Control
- fluorescence after prior oxidation of K9K cysteine residues by DTNB (Curve 2) [1]: prevents generation of fluorescence
- fluorescence after treatment of oxidized K9K with TCEP (Curve 3) [1]: recovery of fluorescence
- fluorescence on treatment of peptide K9K with FlAsH (Curve 1) [1]: rapidly generate intense fluorescence emission
- fluorescence with TCEP and heating versus without TCEP or heating [1]: nearly six times greater
- time at which emission of fluorescence begins [1]: ≤ 15 s
- increase in fluorescence upon exchanging the EDTs for a tetracysteine-containing peptide [2]: more than 50,000 times

Source: patent US11320434B2, “Method and apparatus for rapid detection of SARS-CoV-2” (priority 2020, dated 2022)
